Experimental data from US11312727B1, “Macrocyclic flu endonuclease inhibitors” (Janssen BioPharma, Inc., priority 2018, dated 2022).

Legend:
in vitro = conditions: human, CC50, uninfected A549 cells, CellTiter-Glo
[1] = tested on: Influenza strain A549 A/WSN/33 (H1N1); test: microbe, parasite or virus in culture; type: cell-based; conditions: Influenza A virus, A549, 20 h, A549 cells, influenza A/WSN/33 (H1N1), 20 hours incubation; read-out: A549_A(H1N1) EC50

SMILES: O=C1c2c(O)c(=O)ccn2N2CN1CCCCOc1c(F)cccc1[C@@H]2c1ccccc1 (single isomer, unassigned) [Compound 114B, (18*S)-4-fluoro-12-hydroxy-18-phenyl-6,7,8,9-tetrahydro-18H-10,17-methanobenzo[b]pyrido[1,2-f][1]oxa[5,6,9]triazacyclotridecine-11,13-dione]
- CC50 (in vitro): > 0.2 µM
- EC50 [1]: > 0.1 µM

SMILES: O=C1c2c(O)c(=O)ccn2N2CN1CCCCOc1c(ccc(F)c1F)[C@H]2c1ccccc1 (single isomer, unassigned) [Compound 115A, (18*R)-3,4-difluoro-12-hydroxy-18-phenyl-6,7,8,9-tetrahydro-18H-10,17-methanobenzo[b]pyrido[1,2-f][1]oxa[5,6,9]triazacyclotridecine-11,13-dione]
- CC50 (in vitro): > 0.2 µM
- EC50 [1]: > 0.1 µM

SMILES: O=C1c2c(O)c(=O)ccn2N2CN1CCCCOc1c(ccc(F)c1F)[C@@H]2c1ccccc1 (single isomer, unassigned) [Compound 115B, (18*S)-3,4-difluoro-12-hydroxy-18-phenyl-6,7,8,9-tetrahydro-18H-10,17-methanobenzo[b]pyrido[1,2-f][1]oxa[5,6,9]triazacyclotridecine-11,13-dione]
- CC50 (in vitro): > 0.2 µM
- EC50 [1]: 0.0044 µM

SMILES: O=C1c2c(O)c(=O)ccn2N2CN1CC/C=C\COc1c(ccc(F)c1F)[C@@H]2c1ccccc1 (single isomer, unassigned) [Compound 116A, (2*S,Z)-33,34-difluoro-15-hydroxy-2-phenyl-12,13,14,16-tetrahydro-11H-4-oxa-1(1,3)-pyrido[2,1-f][1,2,4]triazina-3(1,2)-benzenacyclononaphan-6-ene-14,16-dione]
- CC50 (in vitro): > 0.2 µM
- EC50 [1]: 0.014 µM

SMILES: COc1ccccc1[C@@H]1c2cccc(F)c2OC/C=C\CN2CN1n1ccc(=O)c(O)c1C2=O (single isomer, unassigned) [Compound 117A, (18*R,*Z)-4-fluoro-12-hydroxy-18-(2-methoxyphenyl)-6,9-dihydro-18H-10,17-methanobenzo[b]pyrido[1,2-f][1]oxa[5,6,9]triazacyclotridecine-11,13-dione]
- CC50 (in vitro): > 0.2 µM
- EC50 [1]: 0.029 µM

SMILES: COc1ccccc1[C@H]1c2cccc(F)c2OC/C=C\CN2CN1n1ccc(=O)c(O)c1C2=O (single isomer, unassigned) [Compound 117B, (18*S,*Z)-4-fluoro-12-hydroxy-18-(2-methoxyphenyl)-6,9-dihydro-18H-10,17-methanobenzo[b]pyrido[1,2-f][1]oxa[5,6,9]triazacyclotridecine-11,13-dione]
- CC50 (in vitro): > 0.2 µM
- EC50 [1]: > 0.1 µM

SMILES: O=C1c2c(O)c(=O)ccn2N2CN1C[C@H]1C[C@H]1COc1cccc3c1[C@H]2c1ccccc1SC3 (single isomer, unassigned) [Compound 118AA, (1a*R,11b*S,20a*S)-17-hydroxy-1a,2,6,11 b,17,17a,20,20a-octahydro-1H-5,4-(epiprop[1]en[1]yl[3]ylidene)-12,19-methanobenzo[6,7]thiepino[4,5-c]cyclopropa[k]pyrido[1,2-f][1]oxa[5,6,9]triazacyclotridecine-16,18-dione]
- CC50 (in vitro): > 0.2 µM
- EC50 [1]: 0.0062 µM

SMILES: O=C1c2c(O)c(=O)ccn2N2CN1C[C@@H]1C[C@@H]1COc1cccc3c1[C@H]2c1ccccc1SC3 (single isomer, unassigned) [Compound 118AB, (1a*S,11b*S,20a*R)-17-hydroxy-1a,2,6,11b,17,17a,20,20a-octahydro-1H-5,4-(epiprop[1]en[1]yl[3]ylidene)-12,19-methanobenzo[6,7]thiepino[4,5-c]cyclopropa[k]pyrido[1,2-f][1]oxa[5,6,9]triazacyclotridecine-16,18-dione]
- CC50 (in vitro): > 0.2 µM
- EC50 [1]: 0.01 µM

SMILES: CSc1ccccc1[C@H]1c2cccc(F)c2OC/C=C\CN2CN1n1ccc(=O)c(O)c1C2=O (single isomer, unassigned) [Compound 119A, (18*R,*Z)-4-fluoro-12-hydroxy-18-(2-(methylthio)phenyl)-6,9-dihydro-18H-10,17-methanobenzo[b]pyrido[1,2-f][1]oxa[5,6,9]triazacyclotridecine-11,13-dione]
- CC50 (in vitro): > 0.2 µM
- EC50 [1]: > 0.1 µM

SMILES: CSc1ccccc1[C@@H]1c2cccc(F)c2OC/C=C\CN2CN1n1ccc(=O)c(O)c1C2=O (single isomer, unassigned) [Compound 119B, (18*S,*Z)-4-fluoro-12-hydroxy-18-(2-(methylthio)phenyl)-6,9-dihydro-18H-10,17-methanobenzo[b]pyrido[1,2-f][1]oxa[5,6,9]triazacyclotridecine-11,13-dione]
- CC50 (in vitro): > 0.2 µM
- EC50 [1]: 0.022 µM

SMILES: CC[C@@H]1/C=C/COc2c(ccc(Cl)c2Cl)C(c2ccccc2)N2CN1C(=O)c1c(O)c(=O)ccn12 (single isomer, unassigned) [Compound 121AA, (9*R,18*R,*E)-3,4-dichloro-9-ethyl-12-hydroxy-18-phenyl-6,9-dihydro-18H-10,17-methanobenzo[b]pyrido[1,2-f][1]oxa[5,6,9]triazacyclotridecine-11,13-dione]
- CC50 (in vitro): > 0.2 µM
- EC50 [1]: 0.0035 µM

SMILES: CC[C@H]1/C=C/COc2c(ccc(Cl)c2Cl)[C@@H](c2ccccc2)N2CN1C(=O)c1c(O)c(=O)ccn12 (single isomer, unassigned) [Compound 121AB, (9*S,18*R,*E)-3,4-dichloro-9-ethyl-12-hydroxy-18-phenyl-6,9-dihydro-18H-10,17-methanobenzo[b]pyrido[1,2-f][1]oxa[5,6,9]triazacyclotridecine-11,13-dione]
- CC50 (in vitro): > 0.2 µM
- EC50 [1]: > 0.1 µM

SMILES: CC[C@@H]1/C=C/COc2c(ccc(Cl)c2Cl)[C@H](c2ccccc2)N2CN1C(=O)c1c(O)c(=O)ccn12 (single isomer, unassigned) [Compound 121BA, (9*R,18*S,*E)-3,4-dichloro-9-ethyl-12-hydroxy-18-phenyl-6,9-dihydro-18H-10,17-methanobenzo[b]pyrido[1,2-f][1]oxa[5,6,9]triazacyclotridecine-11,13-dione]
- CC50 (in vitro): > 0.2 µM
- EC50 [1]: 0.0028 µM

SMILES: CC[C@H]1/C=C/COc2c(ccc(Cl)c2Cl)[C@H](c2ccccc2)N2CN1C(=O)c1c(O)c(=O)ccn12 (single isomer, unassigned) [Compound 121BB, (9*S,18*S,*E)-3,4-dichloro-9-ethyl-12-hydroxy-18-phenyl-6,9-dihydro-18H-10,17-methanobenzo[b]pyrido[1,2-f][1]oxa[5,6,9]triazacyclotridecine-11,13-dione]
- CC50 (in vitro): > 0.2 µM
- EC50 [1]: 0.06 µM

SMILES: CS(=O)(=O)c1ccccc1[C@@H]1c2cccc(F)c2OC/C=C\CN2CN1n1ccc(=O)c(O)c1C2=O (single isomer, unassigned) [Compound 122, (18*S,*Z)-4-fluoro-12-hydroxy-18-(2-(methylsulfonyl)phenyl)-6,9-dihydro-18H-10,17-methanobenzo[b]pyrido[1,2-f][1]oxa[5,6,9]triazacyclotridecine-11,13-dione]
- CC50 (in vitro): > 0.2 µM
- EC50 [1]: > 0.1 µM

SMILES: CC(C)[C@H]1/C=C/COc2c(F)cccc2[C@@H](c2ccccc2)N2CN1C(=O)c1c(O)c(=O)ccn12 (single isomer, unassigned) [Compound 124AA, (9*S,18*R,*E)-4-fluoro-12-hydroxy-9-isopropyl-18-phenyl-6,9-dihydro-18H-10,17-methanobenzo[b]pyrido[1,2-f][1]oxa[5,6,9]triazacyclotridecine-11,13-dione]
- CC50 (in vitro): > 0.2 µM
- EC50 [1]: > 0.1 µM

SMILES: CC(C)[C@@H]1/C=C/COc2c(F)cccc2[C@H](c2ccccc2)N2CN1C(=O)c1c(O)c(=O)ccn12 (single isomer, unassigned) [Compound 124BB, (9*R,18*S,*E)-4-fluoro-12-hydroxy-9-isopropyl-18-phenyl-6,9-dihydro-18H-10,17-methanobenzo[b]pyrido[1,2-f][1]oxa[5,6,9]triazacyclotridecine-11,13-dione]
- CC50 (in vitro): > 0.2 µM
- EC50 [1]: 0.0053 µM

SMILES: O=C1c2c(O)c(=O)ccn2N2CN1C[C@@H]1C[C@H]1COc1c(F)cccc1[C@H]2c1ccccc1 (single isomer, unassigned) [Compound 125AA, (1a*R,8*R,17a*R)-4-fluoro-14-hydroxy-8-phenyl-1a,2,17,17a-tetrahydro-1H,8H-9,16-methanobenzo[b]cyclopropa[k]pyrido[1,2-f][1]oxa[5,6,9]triazacyclotridecine-13,15-dione]
- CC50 (in vitro): > 0.2 µM
- EC50 [1]: 0.051 µM

SMILES: O=C1c2c(O)c(=O)ccn2N2CN1C[C@H]1C[C@@H]1COc1c(F)cccc1[C@H]2c1ccccc1 (single isomer, unassigned) [Compound 125AB, (1a*R,8*S,17a*R)-4-fluoro-14-hydroxy-8-phenyl-1a,2,17,17a-tetrahydro-1H,8H-9,16-methanobenzo[b]cyclopropa[k]pyrido[1,2-f][1]oxa[5,6,9]triazacyclotridecine-13,15-dione]
- CC50 (in vitro): > 0.2 µM
- EC50 [1]: 0.024 µM

SMILES: O=C1c2c(O)c(=O)ccn2N2CN1C[C@@H]1C[C@H]1COc1c(F)cccc1[C@@H]2c1ccccc1 (single isomer, unassigned) [Compound 125BA, (1a*S,8*R,17a*S)-4-fluoro-14-hydroxy-8-phenyl-1a,2,17,17a-tetrahydro-1H,8H-9,16-methanobenzo[b]cyclopropa[k]pyrido[1,2-f][1]oxa[5,6,9]triazacyclotridecine-13,15-dione]
- CC50 (in vitro): > 0.2 µM
- EC50 [1]: > 0.1 µM

SMILES: O=C1c2c(O)c(=O)ccn2N2CN1C[C@H]1C[C@@H]1COc1c(F)cccc1[C@@H]2c1ccccc1 (single isomer, unassigned) [Compound 125BB, (1a*S,8*S,17a*S)-4-fluoro-14-hydroxy-8-phenyl-1a,2,17,17a-tetrahydro-1H,8H-9,16-methanobenzo[b]cyclopropa[k]pyrido[1,2-f][1]oxa[5,6,9]triazacyclotridecine-13,15-dione]
- CC50 (in vitro): > 0.2 µM
- EC50 [1]: > 0.1 µM

SMILES: CC[C@H]1/C=C\COc2cc(F)c(F)c3c2[C@H](c2ccccc2SC3)N2CN1C(=O)c1c(O)c(=O)ccn12 (single isomer, unassigned) [Compound 126AA, (13*S,21a*R,Z)-13-ethyl-24,25-difluoro-16-hydroxy-6,10,13,21a-tetrahydro-7,8-(epiprop[1]en[1]yl[3]ylidene)-14,21-methanobenzo[6,7]thiepino[4,5-c]pyrido[1,2-f][1]oxa[5,6,9]triazacyclotridecine-15,17-dione]
- CC50 (in vitro): > 0.2 µM
- EC50 [1]: > 0.1 µM
